Experimental data from ChEMBL document CHEMBL1155237, “Selective inhibitors of the mutant B-Raf pathway: discovery of a potent and orally bioavailable aminoisoquinoline” (J Med Chem, 2009).

Legend:
Design in all cases: scale not given: the % may be the effect or the level left
[1] = biological target: Mitogen-activated protein kinase 11 (Homo sapiens) (UniProt Q15759); assay: Inhibition of p38beta assessed as enzyme activity at 1 uM relative to untreated control
[2] = biological target: SRSF protein kinase 3 (Homo sapiens) (UniProt Q9UPE1); assay: Inhibition of SRPK3 assessed as enzyme activity at 1 uM relative to untreated control
[3] = system: Receptor-type tyrosine-protein kinase FLT3 (Homo sapiens), P36888 [K663Q]; assay: Inhibition of FLT3 K663Q mutant assessed as enzyme activity at 1 uM relative to untreated control
[4] = biological target: Serine/threonine-protein kinase MARK2 (Homo sapiens) (UniProt Q7KZI7); assay: Inhibition of MARK2 assessed as enzyme activity at 1 uM relative to untreated control
[5] = biological target: Casein kinase I isoform alpha-like (Homo sapiens) (UniProt Q8N752); assay: Inhibition of CSNK1A1L assessed as enzyme activity at 1 uM relative to untreated control
Sequence of Casein kinase I isoform alpha-like (Homo sapiens) (Q8N752 whole entry, canonical isoform): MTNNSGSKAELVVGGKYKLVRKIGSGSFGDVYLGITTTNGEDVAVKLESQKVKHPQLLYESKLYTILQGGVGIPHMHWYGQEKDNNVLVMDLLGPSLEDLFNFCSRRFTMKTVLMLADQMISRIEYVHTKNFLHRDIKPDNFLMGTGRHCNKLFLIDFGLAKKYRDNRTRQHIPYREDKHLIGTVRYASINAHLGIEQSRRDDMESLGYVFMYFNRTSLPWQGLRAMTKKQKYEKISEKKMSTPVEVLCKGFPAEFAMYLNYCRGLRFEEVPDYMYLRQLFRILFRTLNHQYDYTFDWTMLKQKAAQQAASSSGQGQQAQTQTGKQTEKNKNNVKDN

[6] = biological target: Serine/threonine-protein kinase SIK2 (Homo sapiens) (UniProt Q9H0K1); assay: Inhibition of SNF1LK2 assessed as enzyme activity at 1 uM relative to untreated control
[7] = biological target: Ribosomal protein S6 kinase alpha-1 (Homo sapiens) (UniProt Q15418); assay: Inhibition of RPS6KA1 kinase domain 1 assessed as enzyme activity at 1 uM relative to untreated control
Sequence of Ribosomal protein S6 kinase alpha-1 (Homo sapiens) (Q15418 whole entry, the tested form may be a part): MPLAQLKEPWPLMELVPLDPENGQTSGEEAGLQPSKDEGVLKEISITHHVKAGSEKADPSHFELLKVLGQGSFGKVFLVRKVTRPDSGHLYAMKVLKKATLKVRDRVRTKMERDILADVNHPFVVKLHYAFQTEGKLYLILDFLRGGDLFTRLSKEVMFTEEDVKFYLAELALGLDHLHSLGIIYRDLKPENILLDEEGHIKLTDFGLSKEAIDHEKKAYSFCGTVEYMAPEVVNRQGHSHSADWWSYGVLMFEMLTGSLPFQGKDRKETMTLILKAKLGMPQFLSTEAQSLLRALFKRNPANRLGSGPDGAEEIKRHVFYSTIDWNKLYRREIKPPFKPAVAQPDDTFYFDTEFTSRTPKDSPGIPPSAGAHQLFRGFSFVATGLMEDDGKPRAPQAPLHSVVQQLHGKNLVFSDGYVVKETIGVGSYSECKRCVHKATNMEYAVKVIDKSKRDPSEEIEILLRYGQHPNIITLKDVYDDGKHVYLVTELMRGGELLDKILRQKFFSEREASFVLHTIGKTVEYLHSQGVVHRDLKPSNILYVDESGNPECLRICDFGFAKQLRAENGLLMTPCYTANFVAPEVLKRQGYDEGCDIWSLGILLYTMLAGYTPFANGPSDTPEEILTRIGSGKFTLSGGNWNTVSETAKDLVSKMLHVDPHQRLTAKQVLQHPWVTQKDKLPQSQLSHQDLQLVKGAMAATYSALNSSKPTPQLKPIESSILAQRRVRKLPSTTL

[8] = biological target: Serine/threonine-protein kinase TAO3 (Homo sapiens) (UniProt Q9H2K8); assay: Inhibition of TAOK3 assessed as enzyme activity at 1 uM relative to untreated control
[9] = biological target: Ribosomal protein S6 kinase alpha-2 (Homo sapiens) (UniProt Q15349); assay: Inhibition of RPS6KA2 kinase domain 1 assessed as enzyme activity at 1 uM relative to untreated control
Sequence of Ribosomal protein S6 kinase alpha-2 (Homo sapiens) (Q15349 whole entry, the tested form may be a part): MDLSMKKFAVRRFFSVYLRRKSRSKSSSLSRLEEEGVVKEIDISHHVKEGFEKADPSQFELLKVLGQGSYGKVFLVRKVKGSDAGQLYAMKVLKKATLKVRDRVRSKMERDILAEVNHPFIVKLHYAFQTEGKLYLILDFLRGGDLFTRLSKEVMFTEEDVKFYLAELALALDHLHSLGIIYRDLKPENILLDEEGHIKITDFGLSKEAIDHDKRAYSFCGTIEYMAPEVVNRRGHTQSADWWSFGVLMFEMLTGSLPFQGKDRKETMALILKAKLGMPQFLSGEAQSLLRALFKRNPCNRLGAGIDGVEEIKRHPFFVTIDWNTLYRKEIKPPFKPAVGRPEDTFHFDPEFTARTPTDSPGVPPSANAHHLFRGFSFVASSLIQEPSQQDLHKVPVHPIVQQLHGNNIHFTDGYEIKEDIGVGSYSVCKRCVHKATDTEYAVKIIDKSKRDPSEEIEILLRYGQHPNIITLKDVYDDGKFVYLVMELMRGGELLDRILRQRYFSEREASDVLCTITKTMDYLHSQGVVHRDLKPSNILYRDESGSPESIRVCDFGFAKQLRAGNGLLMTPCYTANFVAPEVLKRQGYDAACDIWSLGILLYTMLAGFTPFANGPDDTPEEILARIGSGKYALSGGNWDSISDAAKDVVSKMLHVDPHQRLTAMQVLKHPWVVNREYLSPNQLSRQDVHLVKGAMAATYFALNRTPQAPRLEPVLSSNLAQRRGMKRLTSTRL

[10] = biological target: Receptor tyrosine-protein kinase erbB-4 (Homo sapiens) (UniProt Q15303); assay: Inhibition of ERBB4 assessed as enzyme activity at 1 uM relative to untreated control
Sequence of Receptor tyrosine-protein kinase erbB-4 (Homo sapiens) (Q15303 whole entry): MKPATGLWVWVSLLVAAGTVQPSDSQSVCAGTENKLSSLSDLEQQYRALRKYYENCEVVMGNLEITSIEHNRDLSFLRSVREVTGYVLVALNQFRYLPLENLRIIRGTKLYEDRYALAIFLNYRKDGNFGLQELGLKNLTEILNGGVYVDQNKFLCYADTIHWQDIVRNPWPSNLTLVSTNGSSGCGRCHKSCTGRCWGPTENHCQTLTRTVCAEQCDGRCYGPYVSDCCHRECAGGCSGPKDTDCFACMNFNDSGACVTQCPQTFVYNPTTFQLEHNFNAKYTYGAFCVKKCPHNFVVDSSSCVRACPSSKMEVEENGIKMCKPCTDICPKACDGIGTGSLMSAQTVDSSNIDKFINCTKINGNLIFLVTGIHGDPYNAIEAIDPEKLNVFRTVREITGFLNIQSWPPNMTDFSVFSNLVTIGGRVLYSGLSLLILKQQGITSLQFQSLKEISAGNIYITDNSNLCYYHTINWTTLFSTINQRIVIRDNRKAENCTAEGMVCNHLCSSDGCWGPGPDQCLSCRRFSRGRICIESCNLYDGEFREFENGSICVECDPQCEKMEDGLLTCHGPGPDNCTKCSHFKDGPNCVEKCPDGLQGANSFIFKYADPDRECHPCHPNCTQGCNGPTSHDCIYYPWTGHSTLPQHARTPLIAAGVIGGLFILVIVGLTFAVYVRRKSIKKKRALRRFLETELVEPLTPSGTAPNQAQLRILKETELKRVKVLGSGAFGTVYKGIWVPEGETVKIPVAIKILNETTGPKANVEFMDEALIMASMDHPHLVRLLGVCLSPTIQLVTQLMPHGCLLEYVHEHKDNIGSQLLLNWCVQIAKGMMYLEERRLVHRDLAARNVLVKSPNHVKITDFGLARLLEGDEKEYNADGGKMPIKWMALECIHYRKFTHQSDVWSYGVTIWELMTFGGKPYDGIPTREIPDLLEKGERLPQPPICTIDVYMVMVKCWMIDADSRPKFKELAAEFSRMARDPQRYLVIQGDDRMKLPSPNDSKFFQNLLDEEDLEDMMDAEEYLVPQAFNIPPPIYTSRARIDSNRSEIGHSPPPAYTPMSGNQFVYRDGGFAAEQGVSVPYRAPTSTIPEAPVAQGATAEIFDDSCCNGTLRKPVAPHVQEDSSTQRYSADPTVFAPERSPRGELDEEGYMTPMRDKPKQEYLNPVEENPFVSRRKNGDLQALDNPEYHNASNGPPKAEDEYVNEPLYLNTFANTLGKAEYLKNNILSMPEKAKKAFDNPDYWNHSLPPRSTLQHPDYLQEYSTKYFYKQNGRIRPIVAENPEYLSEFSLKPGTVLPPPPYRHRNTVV

[11] = biological target: Macrophage-stimulating protein receptor (Homo sapiens) (UniProt Q04912); assay: Inhibition of MST1R assessed as enzyme activity at 1 uM relative to untreated control
Sequence of Macrophage-stimulating protein receptor (Homo sapiens) (Q04912 25-304 limits assumed): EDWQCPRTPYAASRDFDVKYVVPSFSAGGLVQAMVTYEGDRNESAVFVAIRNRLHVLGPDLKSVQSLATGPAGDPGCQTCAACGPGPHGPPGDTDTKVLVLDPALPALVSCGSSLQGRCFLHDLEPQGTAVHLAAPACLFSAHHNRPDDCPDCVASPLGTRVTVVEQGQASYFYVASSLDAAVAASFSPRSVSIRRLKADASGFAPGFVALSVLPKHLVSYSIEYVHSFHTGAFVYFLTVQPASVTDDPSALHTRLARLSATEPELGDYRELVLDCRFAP
Sequence of Macrophage-stimulating protein receptor (Homo sapiens) (Q04912 310-1400 limits assumed): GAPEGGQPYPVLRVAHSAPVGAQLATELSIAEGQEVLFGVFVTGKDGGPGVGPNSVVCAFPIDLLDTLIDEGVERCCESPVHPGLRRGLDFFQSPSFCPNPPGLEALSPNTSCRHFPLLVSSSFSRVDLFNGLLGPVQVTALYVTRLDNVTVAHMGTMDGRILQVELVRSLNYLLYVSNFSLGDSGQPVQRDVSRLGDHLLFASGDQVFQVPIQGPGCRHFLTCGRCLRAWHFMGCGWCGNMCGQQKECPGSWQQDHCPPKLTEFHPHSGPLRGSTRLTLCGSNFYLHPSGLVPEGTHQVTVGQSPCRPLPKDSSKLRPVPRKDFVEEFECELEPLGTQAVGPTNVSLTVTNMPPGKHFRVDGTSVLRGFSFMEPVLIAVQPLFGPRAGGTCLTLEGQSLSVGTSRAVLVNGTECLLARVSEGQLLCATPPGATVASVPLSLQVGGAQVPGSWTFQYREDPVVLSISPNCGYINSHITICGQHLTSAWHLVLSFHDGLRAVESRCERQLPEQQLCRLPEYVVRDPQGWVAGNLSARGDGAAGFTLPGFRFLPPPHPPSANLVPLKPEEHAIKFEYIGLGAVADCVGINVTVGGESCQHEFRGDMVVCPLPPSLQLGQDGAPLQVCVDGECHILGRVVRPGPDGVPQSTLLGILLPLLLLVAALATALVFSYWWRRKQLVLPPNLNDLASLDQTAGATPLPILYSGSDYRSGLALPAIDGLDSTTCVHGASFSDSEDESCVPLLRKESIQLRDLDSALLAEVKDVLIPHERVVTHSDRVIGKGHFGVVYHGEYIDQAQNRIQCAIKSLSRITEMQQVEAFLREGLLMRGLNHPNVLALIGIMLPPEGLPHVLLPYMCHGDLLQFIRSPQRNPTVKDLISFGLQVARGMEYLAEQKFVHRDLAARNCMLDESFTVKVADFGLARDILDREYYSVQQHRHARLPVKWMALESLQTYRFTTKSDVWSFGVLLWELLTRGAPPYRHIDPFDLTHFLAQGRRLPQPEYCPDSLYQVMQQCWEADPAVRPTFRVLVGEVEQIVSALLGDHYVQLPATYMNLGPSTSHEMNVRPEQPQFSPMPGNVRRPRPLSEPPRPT

Sequence of Mitogen-activated protein kinase 11 (Homo sapiens) (Q15759 whole entry): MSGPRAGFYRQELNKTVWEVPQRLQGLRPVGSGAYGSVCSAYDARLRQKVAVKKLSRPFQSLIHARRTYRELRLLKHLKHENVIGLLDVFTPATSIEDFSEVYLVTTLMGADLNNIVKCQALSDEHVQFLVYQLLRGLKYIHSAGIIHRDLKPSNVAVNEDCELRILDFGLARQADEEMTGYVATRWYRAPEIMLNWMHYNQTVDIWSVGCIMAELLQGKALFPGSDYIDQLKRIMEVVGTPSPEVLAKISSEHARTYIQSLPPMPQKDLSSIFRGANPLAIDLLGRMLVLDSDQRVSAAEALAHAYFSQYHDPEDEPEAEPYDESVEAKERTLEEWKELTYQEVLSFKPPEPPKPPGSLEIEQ

In the case of `Cc1ccc2c(Nc3ccc(Cl)cc3)nccc2c1Nc1ncccc1-c1ncnc2[nH]cnc12.Cl.Cl.Cl`, the Activity [1] is reported as 99%, the Activity [2] is reported as 100% and the Activity [3] is reported as 75%. The Activity [4] was 100%, the Activity [5] was 95% and the Activity [6] was 100%. For the same molecule, the Activity [7] was 94%, the Activity [8] was 94% and the Activity [9] was 100%. For the same molecule, the Activity [10] was 98% and the Activity [11] was 97%.
